In ChEMBL document CHEMBL4052655, “Synthesis, spectroscopic characterization and biological evaluation of unsymmetrical aminosquarylium cyanine dyes” (Bioorg Med Chem, 2017):
Activity calls are given as the source filed them. The rule behind the calls is not given here.

Key:
[1] = Dark toxicity against human Caco2 cells pretreated for 24 hrs followed by 14 mins dark incubation measured after 1 hr by Alamar blue assay; assay type: cell-based; settings: Caco-2 cells
[2] = Induction of singlet oxygen production in chloroform
[3] = Dark toxicity against human Caco2 cells assessed as cell viability at 5 to 10 uM pretreated for 24 hrs followed by 14 mins dark incubation measured after 1 to 24 hrs by Alamar blue assay relative to control; assay type: cell-based; settings: Caco-2 cells, read-out: Activity
[4] = Dark toxicity against human HepG2 cells assessed as cell viability at 5 to 10 uM pretreated for 24 hrs followed by 14 mins dark incubation measured after 1 to 24 hrs by Alamar blue assay relative to control; assay type: cell-based; settings: read-out: Activity
[5] = Dark toxicity against human HepG2 cells assessed as cell viability at 1 uM pretreated for 24 hrs followed by 14 mins dark incubation after 48 hrs by Alamar blue assay relative to control; assay type: cell-based; settings: read-out: Activity
[6] = system: Caco-2; experiment: Phototoxicity against human Caco2 cells assessed as cell viability at 1 uM pretreated for 24 hrs followed by 3.61 J irradiation for 14 mins measured after 24 hrs by Alamar blue assay (reference value: 80%); assay type: functional; settings: Caco-2, light or radiation study, read-out: Activity
[7] = Dark toxicity against human Caco2 cells pretreated for 24 hrs followed by 14 mins dark incubation measured after 24 hrs by Alamar blue assay; assay type: cell-based; settings: Caco-2 cells
[8] = system: Caco-2; experiment: Phototoxicity against human Caco2 cells pretreated for 24 hrs followed by 1.81 J irradiation for 7 mins measured after 1 hr by Alamar blue assay; assay type: functional, cell-based; settings: Caco-2, light or radiation study
[9] = system: Caco-2; experiment: Phototoxicity against human Caco2 cells pretreated for 24 hrs followed by 1.81 J irradiation for 7 mins measured after 24 hrs by Alamar blue assay; assay type: functional, cell-based; settings: Caco-2, light or radiation study
[10] = Dark toxicity against human HepG2 cells pretreated for 24 hrs followed by 14 mins dark incubation measured after 1 hr by Alamar blue assay; assay type: cell-based
[11] = Dark toxicity against human HepG2 cells pretreated for 24 hrs followed by 14 mins dark incubation measured after 24 hrs by Alamar blue assay; assay type: cell-based
[12] = system: HepG2; experiment: Phototoxicity against human HepG2 cells pretreated for 24 hrs followed by 1.81 J irradiation for 7 mins measured after 1 hr by Alamar blue assay; assay type: functional, cell-based; settings: HepG2, light or radiation study
[13] = system: HepG2; experiment: Phototoxicity against human HepG2 cells pretreated for 24 hrs followed by 1.81 J irradiation for 7 mins measured after 24 hrs by Alamar blue assay; assay type: functional, cell-based; settings: HepG2, light or radiation study
[14] = system: Caco-2; experiment: Phototoxicity against human Caco2 cells pretreated for 24 hrs followed by 3.61 J irradiation for 14 mins measured after 1 hr by Alamar blue assay; assay type: functional, cell-based; settings: Caco-2, light or radiation study
[15] = system: Caco-2; experiment: Phototoxicity against human Caco2 cells pretreated for 24 hrs followed by 3.61 J irradiation for 14 mins measured after 24 hrs by Alamar blue assay; assay type: functional, cell-based; settings: Caco-2, light or radiation study
[16] = system: HepG2; experiment: Phototoxicity against human HepG2 cells pretreated for 24 hrs followed by 3.61 J irradiation for 14 mins measured after 1 hr by Alamar blue assay; assay type: functional, cell-based; settings: HepG2, light or radiation study
[17] = system: HepG2; experiment: Phototoxicity against human HepG2 cells pretreated for 24 hrs followed by 3.61 J irradiation for 14 mins measured after 24 hrs by Alamar blue assay; assay type: functional, cell-based; settings: HepG2, light or radiation study
[18] = system: Caco-2; experiment: Phototoxicity against human Caco2 cells assessed as reduction in cell viability at 1 uM pretreated for 24 hrs followed by 1.81 J irradiation for 7 mins measured after 1 to 24 hrs by Alamar blue assay; assay type: functional, cell-based
[19] = system: HepG2; experiment: Phototoxicity against human HepG2 cells assessed as reduction in cell viability at 1 uM pretreated for 24 hrs followed by 1.81 J irradiation for 7 mins measured after 1 hr by Alamar blue assay; assay type: functional, cell-based
[20] = system: HepG2; experiment: Phototoxicity against human HepG2 cells assessed as reduction in cell viability at 1 uM pretreated for 24 hrs followed by 3.61 J irradiation for 14 mins measured after 1 hr by Alamar blue assay; assay type: functional, cell-based
[21] = system: HepG2; experiment: Phototoxicity against human HepG2 cells assessed as reduction in cell viability at 1 uM pretreated for 24 hrs followed by 1.81 J irradiation for 7 mins measured after 24 hrs by Alamar blue assay; assay type: functional, cell-based
[22] = system: HepG2; experiment: Phototoxicity against human HepG2 cells assessed as reduction in cell viability at 1 uM pretreated for 24 hrs followed by 3.61 J irradiation for 14 mins measured after 24 hrs by Alamar blue assay; assay type: functional, cell-based
[23] = Dark toxicity against human Caco2 cells assessed as cell viability at 1 uM pretreated for 24 hrs followed by 14 mins dark incubation after 1 to 24 hrs by Alamar blue assay relative to control; assay type: cell-based; settings: Caco-2 cells, read-out: Activity
[24] = Dark toxicity against human HepG2 cells assessed as cell viability at 10 uM pretreated for 24 hrs followed by 14 mins dark incubation measured after 1 to 24 hrs by Alamar blue assay relative to control; assay type: cell-based; settings: read-out: Activity
[25] = system: Caco-2; experiment: Dark toxicity against human Caco2 cells assessed as reduction in cell viability at 10 uM pretreated for 24 hrs followed by 14 mins dark incubation measured after 1 to 24 hrs by Alamar blue assay; assay type: cell-based; settings: caco-2, 10 µM
[26] = system: Caco-2; experiment: Dark toxicity against human Caco2 cells assessed as reduction in cell viability at 1 uM pretreated for 24 hrs followed by 14 mins dark incubation measured after 1 to 24 hrs by Alamar blue assay; assay type: cell-based; settings: caco-2, 1 µM
[27] = system: HepG2; experiment: Dark toxicity against human HepG2 cells assessed as reduction in cell viability at 1 uM pretreated for 24 hrs followed by 14 mins dark incubation measured after 1 to 24 hrs by Alamar blue assay; assay type: cell-based; settings: hepg2, 1 µM
[28] = system: HepG2; experiment: Phototoxicity against human HepG2 cells assessed as cell viability at 5 uM pretreated for 24 hrs followed by 3.61 J irradiation for 14 mins measured after 24 hrs by Alamar blue assay relative to control; assay type: functional; settings: HepG2, light or radiation study, read-out: Activity
[29] = system: Caco-2; experiment: Phototoxicity against human Caco2 cells at 5 to 10 uM pretreated for 24 hrs followed by 1.81 J irradiation for 7 mins measured after 24 hrs by Alamar blue assay; assay type: functional, cell-based
[30] = system: Caco-2; experiment: Phototoxicity against human Caco2 cells at 5 to 10 uM pretreated for 24 hrs followed by 3.61 J irradiation for 14 mins measured after 24 hrs by Alamar blue assay; assay type: functional, cell-based
[31] = system: HepG2; experiment: Phototoxicity against human HepG2 cells assessed as reduction in cell viability up to 10 uM pretreated for 24 hrs followed by 1.81 J irradiation for 7 mins measured after 1 hr by Alamar blue assay; assay type: functional, cell-based
[32] = system: HepG2; experiment: Phototoxicity against human HepG2 cells assessed as reduction in cell viability at 5 uM pretreated for 24 hrs followed by 3.61 J irradiation for 14 mins measured after 24 hrs by Alamar blue assay; assay type: functional, cell-based
[33] = system: Caco-2; experiment: Phototoxicity against human Caco2 cells assessed as reduction in cell viability at 1 uM pretreated for 24 hrs followed by 3.61 J irradiation for 14 mins measured after 24 hrs by Alamar blue assay; assay type: functional, cell-based
[34] = Dark toxicity against human Caco2 cells assessed as cell viability at 0.1 to 1 uM pretreated for 24 hrs followed by 14 mins dark incubation after 1 to 24 hrs by Alamar blue assay relative to control; assay type: cell-based; settings: Caco-2 cells, read-out: Activity
[35] = system: Caco-2; experiment: Phototoxicity against human Caco2 cells assessed as cell viability at 5 uM pretreated for 24 hrs followed by 1.81 J irradiation for 7 mins measured after 24 hrs by Alamar blue assay (reference value: 60%); assay type: functional; settings: Caco-2, light or radiation study, read-out: Activity
[36] = system: Caco-2; experiment: Phototoxicity against human Caco2 cells assessed as cell viability at 5 uM pretreated for 24 hrs followed by 3.61 J irradiation for 14 mins measured after 24 hrs by Alamar blue assay (reference value: 60%); assay type: functional; settings: Caco-2, light or radiation study, read-out: Activity
[37] = system: Caco-2; experiment: Ratio of IC50 for human Caco2 cells pretreated for 24 hrs followed by 14 mins dark incubation to IC50 for human Caco2 cells pretreated for 24 hrs followed by 3.61 J irradiation for 14 mins

Row | Structure (SMILES) | IC50 at 1 h [1] [nM] | Activity [2] | viability at up to 10 µM [3] [%] | viability at 24 h, 10 µM [4] [%] | viability at 48 h, 1 µM [5] [%] | IC50 at 24 h [7] [nM] | IC50 [8] [nM] | IC50 [9] [nM] | IC50 at 1 h [10] [nM] | IC50 at 24 h [11] [nM] | IC50 [12] [nM] | IC50 [13] [nM] | IC50 [14] [nM] | IC50 [15] [nM] | IC50 [16] [nM] | IC50 [17] [nM] | Activity [18] | Activity [20] | Activity [21] | Activity [22] | other results
1 | CCCCCCN1/C(=C/C2=C(N)C(=C\c3ccc4ccccc4[n+]3CCCCCC)/C2=O)Sc2ccccc21 | 1720 | Active | 0 | 0 | 20 | 1650 | 1240 | 1390 | 1710 | 1400 | 750 | 940 | 950 | 690 | 860 | 650 | Active | Active | Active | Active | viability at 1 µM [6]: 0%; Activity [19]: Active; viability at 24 h, 1 µM [23]: 20%
2 | CCCCCCN1/C(=C/C2=C([O-])C(=C\c3ccc4ccccc4[n+]3CCCCCC)/C2=O)Sc2ccccc21 | > 10000 | Active | – | – | – | 5800 | > 10000 | 5380 | 9100 | 7840 | 8530 | 8240 | > 10000 | 5080 | 8950 | 5060 | – | – | – | – | viability at 24 h, 10 µM [24]: 15%; Activity [25]: Non-Toxic; Activity [26]: Non-Toxic; Activity [27]: Non-Toxic; viability at 5 µM [28]: 50%; Activity [29]: Active; Activity [30]: Active; Activity [31]: inactive; Activity [32]: Active
3 | CCCCCCN1/C(=C/C2=C(NC)C(=C\c3ccc4ccccc4[n+]3CCCCCC)/C2=O)Sc2ccccc21.[I-] | 5110 | Active | 0 | 0 | 70 | 1270 | 3900 | 1160 | 2930 | 1360 | 3390 | 1020 | 1460 | 470 | 930 | 830 | Active | Active | Active | Active | Activity [33]: Active; viability at up to 1 µM [34]: 70%; viability at 5 µM [35]: 0%; viability at 5 µM [36]: 0%; Ratio IC50 [37]: 3.6
